Where a SMILES comes first, the peptide text is derived from it. Bridges are numbered along the chain shown (N, C = ends).
Columns and labels:
[1] = Clinical study in CIC patients: pharmacokinetic profile of SP-304 in plasma; format: in vivo, Humans; conditions: oral, 14 days, assay sensitivity ≥10 ng/mL
Method: (§1) A randomized, double-blind, placebo-controlled, 14-day repeat oral, dose ranging study was conducted in patients with chronic idiopathic constipation (CIC). […] One secondary objective was to assess the pharmacokinetic profile of SP-304 in plasma.
(§2) Subjects diagnosed with CIC were screened for the anticipated 4 cohorts to yield 80 randomized subjects for enrollment. […] Subjects who continued to meet all the entry criteria and complete the pre-treatment bowel movement (BM) diary received, in a double-blind, randomized fashion, SP-304 or matching placebo. The entry criteria included (1) meeting modified ROME III criteria for chronic constipation (CC); (2) no significant finding in colonoscopy within past 5 years; (3) good health as determined by physical examination, medical history, vital signs, ECG, clinical chemistry, hematology, urinalysis, drug screen and serology assessments; and (4) during 14-day pre-treatment period, subjects reporting <6 SBM and <3 CSBM in each pre-treatment week.
(§3) The majority of adverse events were mild/moderate and transient in nature. […] The table below is a GI-related adverse event (AE) summary.

[2] = Excipient compatibility: percent purity (HPLC) of SP-304 in binary mixtures stored at 40 C/75RH; format: physicochemical
Description: For solid excipients the binary mixtures were comprised of 9.1% or 50% excipient. Glass vials were stored at 40 C/75RH open or closed.

[3] = test system: patients with chronic idiopathic constipation (CIC); format: in vivo
Method: as §1, §2, §3

[4] = test system: patients with chronic idiopathic constipation (CIC); test: Clinical study in CIC patients: pharmacodynamic effects (efficacy), bowel habits; format: in vivo, Humans; conditions: for time to first bowel movement: after daily dose
Method: as §1, §2

[5] = 14-day repeat oral dosing, CIC patients
[6] = daily treatment 14 days, CIC patients

## CC(C)C[C@H](NC(=O)[C@@H]1CSSC[C@@H]2NC(=O)[C@H](CC(C)C)NC(=O)[C@H](CCC(=O)O)NC(=O)[C@@H](NC(=O)[C@H](CCC(=O)O)NC(=O)[C@H](CC(=O)O)NC(=O)[C@@H](N)CC(N)=O)CSSC[C@H](NC(=O)[C@H](C)NC(=O)[C@H](C(C)C)NC(=O)[C@H](CC(N)=O)NC(=O)[C@H](C(C)C)NC2=O)C(=O)N[C@@H]([C@@H](C)O)C(=O)NCC(=O)N1)C(=O)O [SP-304, Asn^1-Asp^2-Glu^3-Cys^4-Glu^5-Leu^6-Cys^7-Val^8-Asn^9-Val^10-Ala^11-Cys^12-Thr^13-Gly^14-Cys^15-Leu^16] (H-NDECELCVNVACTGCL-OH; disulfide 4-12, 7-15)
[1]
  systemic absorption of plecanatide: no detectable systemic absorption
[2]; closed glass vial, 1 month
  percent purity of SP-304 (HPLC), Closed 1 M: 91.4%
[2]; closed glass vial, 2 months
  percent purity of SP-304 (HPLC), Closed 2 M: 88.2%
[2]; open glass vial, 0.5 month
  percent purity of SP-304 (HPLC), Open 0.5 M: 93.7%
[2]; open glass vial, 1 month
  percent purity of SP-304 (HPLC), Open 1 M: 91.2%
[2]; open glass vial, 2 months
  percent purity of SP-304 (HPLC), Open 2 M: 88.2%
[2]; open glass vial, 3 months
  percent purity of SP-304 (HPLC), Open 3 M: 84.8%
[3]; [5]
  deaths: no deaths reported
  serious adverse events (SAE): No serious adverse events
[3]; human, in vivo
  diarrhea: no diarrhea reported
  subjects reporting GI-related adverse events considered as related to treatment: 5.2%
  subjects reporting adverse events considered as related to the treatment: 17.2%
[4]; Bristol Stool Form Scale, daily treatment 14 days
  stool consistency: improved
[4]; CIC patients
  time to first bowel movement: decreased
[4]; CIC patients, listed as Plecanatide
  time to first bowel movement: reduced
[4]; [6]
  abdominal discomfort: reduced
  stool frequency (CSBM): increased
  stool frequency (SBM): increased
  straining: reduced
